Measurements taken from patent US12438175B2, “Aqueous organic-based electrolyte for redox flow battery” (KEMIWATT, priority 2019, dated 2025).
In brackets after ≈: the same amount, converted by molar mass. Structures can show the parent of a compound that is named as a salt.

What was measured:
[1] = comparative redox active material in negolytes; cited from earlier work
[2] = Cycling tests of redox flow battery cells in constant power cycling mode
[3] = Cyclic voltammetry / linear sweep voltammetry, electrochemical parameters; type: physicochemical; conditions: for Peak-to-peak separation ΔEp: 100 mV/s, third cycle; for E^0′ apparent standard redox potential / E1/2 half-wave potential: 5 mM, pH 14, 1 M KOH; for E1/2 half-wave potential: RDE; for k^0′O × 10^−2 apparent heterogeneous rate constant: Gileadi's equation; for DO × 10^−6 diffusion coefficient: Randles-Sevcik
Protocol: Cyclic voltammetry experiments were performed at a 100 mV/s scan rate for compounds M3CH, D3CH, D4CH, M3SH, D3SH, M4SH and D4SH in solution at pH 13 (KOH 0.1 M) or pH 14 (KOH 1 M).
The electrochemical experiments were conducted on an electrochemical working station (BioLogic Science Instruments VSP) at 25° C. using a three-electrodes electrochemical cell, where a Pt wire was employed at the counter electrode (CE), an Ag/AgCl/KCl saturated electrode immerged in a 1 M KOH solution protected from the cell by a porous frit glass served as the reference electrode (RE) and a rotating disc electrode (RDE) mounted with a glassy carbon (GC, 7.069 mm^2) disk was used as the working electrode (WE), respectively. The potential was reported relative to the normal hydrogen electrode (NHE), which was converted from the Ag/AgCl reference electrode (0.230 V versus NHE). The ohmic drop between the WE and RE is determined by current interrupt experiments and leads to a value close to 0.7069 Ω·cm^2. All cyclic voltammetry experiments were conducted by alleviating most of this resistance (85%) using the potentiostat manual ohmic drop compensation. Before each electrochemical measurement, the GC disk electrode was polished using SiC P4000 foil.
Each recorded cyclic voltammetry of the reduction and the oxidation process of a compound at a given scan rate is analyzed by measuring ip,a=anodic peak current; ip,c=cathodic peak current; v=scan rate; Ep,a=anodic peak potential; Ep,c=cathodic peak potential; ΔEp=Ep,a−Ep,c; the apparent standard redox potential E^0′=[…].
Linear sweep voltammetry (LSV) using the RDE at various rotation speed (400 up to 1 000 RPM) were performed to determine the averaged half-wave potential E1/2.
The oxidation (DO) and the reduction (DR) diffusion coefficients were calculated using Randles-Sevcik (RS) equation ip=0.4463·n^3/2·F^3/2·A·C·v^1/2·D^1/2·R^−1/2·T^−1/2=Cye·v^1/2·D^1/2, n=number of electrons exchanged during the redox process; F=faradaic number=96485 C·mol^−1; A=electrode active surface; C=redox active molecule concentration; R=gas constant=8.314 J·K^−1·mol^−1; T=bulk temperature=299 K. The experiments are conducted by cyclic voltammetry at various scan rates ranging from 10 mV/s up to 20 V/s.
A graphic of lip,al and lip,cl=f(Cte×v^1/2) is plotted, if the redox process is reversible and diffusion controlled, the peak current should be proportional to the square root of the scan rate. The diffusion coefficients (oxidation and reduction) are then calculated by taking the square of the regression lines slopes. Diffusion coefficients (oxidation and reduction processes) are evaluated by plotting the peak current versus a constant multiplied by the square root of the scan rate. The plots regression line gives a straight line with perfect correlation coefficient (100%) confirming that the redox process is reversible and diffusion controlled. The square of each slope gives the associated coefficient diffusion in cm^2 s^−1.
The apparent heterogeneous rate constant during oxidation (k^0′O)/and reduction (k^0′R) process was calculated using Gileadi's equation (C. Rüssel, W. Jaenicke, Electrochimica Acta, Vol 27, N° 12, 1745-1750, 1982) log k^0′=−0.48α+0.52 +log[(nFαvcD)/(2.303RT)]^1/2; vc is the critical scan rate, it is calculated by plotting the peak potentials versus the logarithm of the scan rates, and is more precise when a very wide range of scan rates is used, which is the case here (0.010 up to 20 V·s^−1), it is determined at the x-axis of the point of intersection of the regression lines drawn at low and high scan rates; a is the transfer coefficient that is supposed to be close to 0.5 for all presented compounds.
Peak-to-peak separation ΔEp values were determined from the third cycle of each cyclic voltammogram (FIGS. 1 and 2) and are gathered in the following table 4.
The standard redox process reversibility evaluation is performed in diluted state, at 5 mM of concentration, at pH 14 buffered with 1 M of KOH. […]

[4] = type: physicochemical; conditions: pH 13.5
Protocol: (§1) Post-cycling analyses were carried out using ^1H NMR spectroscopy electrolytes. […] Taking into account the electrolyte-membrane contact time during this cycling test and the NMR spectroscopy resolution, the permeability coefficient of compound D4CH can be estimated below 10^−12 cm^2/s or less than 1% capacity loss per year of electrolyte-membrane contact.
as §1, with “M4SH” for “D4CH”

[5] = Solubility in aqueous solution at various pH by shake-flask method; conditions: thermodynamic from solid
Protocol: An aqueous solution (containing either KCl 1M, KOH 1M or H2SO4 1M) is added over 100 mg of compound by 20 μL portions until complete solubilization. We obtain an approximate range of solubility values calculated as following:
Smax˜(m/M)/V; m=mass of evaluated compound (g); M=molar mass of evaluated compound (g·mol^−1); V=added volume (L).

[6] = 0.3 M AQ-2,7-DS, pH 13.0, Battery no 3, 60 mL, flowrate 0.5 mL/min/cm^2
[7] = 0.3 M AQ-2,7-DS, pH 13.0, Battery no 3, 60 mL, flowrate 5 mL/min/cm^2
[8] = 0.3 M AQ-2,7-DS, pH 13.0, Battery no 4, 120 mL, flowrate 0.5 mL/min/cm^2
[9] = 0.3 M AQ-2,7-DS, pH 13.0, Battery no 4, 120 mL, flowrate 5 mL/min/cm^2
[10] = extrapolated from 5 days, flowrate 0.5 mL/min/cm^2, negolyte 120/120/40/370 mL
[11] = 0.2 M ARS, pH 14.0, Battery no 1, 60 mL, flowrate 0.5 mL/min/cm^2
[12] = 0.2 M ARS, pH 14.0, Battery no 1, 60 mL, flowrate 5 mL/min/cm^2
[13] = 0.2 M ARS, pH 14.0, Battery no 2, 120 mL, flowrate 0.5 mL/min/cm^2
[14] = 0.2 M ARS, pH 14.0, Battery no 2, 120 mL, flowrate 5 mL/min/cm^2
[15] = 0.3 M Complexone, pH 13.7, Battery no 5, 40 mL, flowrate 0.5 mL/min/cm^2
[16] = 0.3 M Complexone, pH 13.7, Battery no 5, 40 mL, flowrate 5 mL/min/cm^2

| SMILES | DO × 10^−6 [1] | k^0′O × 10^−2 [1] | Solubility, solution at pH 0 (H2SO4 1M) | Solubility, solution at pH 14 (KOH 1M) | Peak-to-peak separation ΔEp ([3]; pH 13 (KOH 0.1 M)) | Peak-to-peak separation ΔEp ([3]; pH 14 (KOH 1 M)) | further results |
| --- | --- | --- | --- | --- | --- | --- | --- |
| O=C1c2ccc(S(=O)(=O)O)cc2C(=O)c2cc(S(=O)(=O)O)ccc21 [AQ-2,7-DS, Anthraquinone-2,7-disulfonic acid disodium salt] | 3.8 × 10^−6 cm^2/s | 0.72 × 10^−2 cm/s |  |  |  |  | Stability in cycles (−20%) [2, 6]: 563 cycles; Stability in days (−20%) [2, 6]: 27.1 days; Stability in cycles (−20%) [2, 7]: 378 cycles; Stability in days (−20%) [2, 7]: 21.1 days; Stability in cycles (−20%) [2, 8]: 0 cycles; Stability in days (−20%) [2, 8]: 0.0 days; Stability in cycles (−20%) [2, 9]: 173 cycles; Stability in days (−20%) [2, 9]: 19.6 days; behaviour after decreasing the flowrate down to 0.5 mL/min/cm^2 ([2]; constraints close to real systems, 0.3 M, pH 13.0): precipitates directly; Stability in cycles (−20%) [2, 10]: 0 cycles; Stability in days (−20%) [2, 10]: 0.0 days |
| O=C1c2ccccc2C(=O)c2c1cc(S(=O)(=O)O)c(O)c2O [ARS, 1,2-Dihydroxyanthraquinone-3-sulfonic acid sodium salt] |  |  |  |  |  |  | Stability in cycles (−20%) [2, 11]: 81 cycles; Stability in days (−20%) [2, 11]: 3.5 days; Stability in cycles (−20%) [2, 12]: 138 cycles; Stability in days (−20%) [2, 12]: 6.4 days; Stability in cycles (−20%) [2, 13]: 45 cycles; Stability in days (−20%) [2, 13]: 3.8 days; Stability in cycles (−20%) [2, 14]: 62 cycles; Stability in days (−20%) [2, 14]: 6.6 days; Stability in cycles (−20%) [2, 10]: 45 cycles; Stability in days (−20%) [2, 10]: 3.5 days |
| C[N+](C)(C)CCC[n+]1ccc(-c2cc[n+](CCC[N+](C)(C)C)cc2)cc1.[Cl-].[Cl-].[Cl-].[Cl-] [BTMAP-Vi] | 3.3 × 10^−6 cm^2/s | 2.2 × 10^−2 cm/s |  |  |  |  |  |
| O=C(O)CN(CC(=O)O)Cc1cc2c(c(O)c1O)C(=O)c1ccccc1C2=O [Complexone, 3,4-Dihydroxyanthraquinon-2-yl-methylimino-diacetic acid] |  |  |  |  |  |  | Stability in cycles (−20%) [2, 15]: 63 cycles; Stability in days (−20%) [2, 15]: 3.2 days; Stability in cycles (−20%) [2, 16]: 69 cycles; Stability in days (−20%) [2, 16]: 3.4 days; Stability in cycles (−20%) [2, 10]: 74 cycles; Stability in days (−20%) [2, 10]: 3.3 days |
| O=C(O)CCCOc1ccc(OCCCC(=O)O)c2c1C(=O)c1ccccc1C2=O [Compound D3CH] |  |  | 0.30 M | 0.42 M | 267 mV | 46 mV |  |
| O=C1c2ccccc2C(=O)c2c(OCCCS(=O)(=O)O)ccc(OCCCS(=O)(=O)O)c21 [Compound D3SH] |  |  | 0.73 M | 0.92 M | 246 mV | 40 mV |  |
| O=C1c2ccccc2C(=O)c2c(OCCCS(=O)(=O)[O-])ccc(OCCCS(=O)(=O)[O-])c21.[Na+].[Na+] [Compound D3SNa] |  |  | 0.15 M | 0.44 M |  |  |  |
| O=C(O)CCCCOc1ccc(OCCCCC(=O)O)c2c1C(=O)c1ccccc1C2=O [Compound D4CH] |  |  | 0.00 M | 0.46 M | 328 mV | 32 mV | compound degradation in negolyte after cycling [4]: No traces of compound D4CH degradation were visible |
| O=C1c2ccccc2C(=O)c2c(OCCCCS(=O)(=O)O)ccc(OCCCCS(=O)(=O)O)c21 [Compound D4SH] |  |  | 0.91 M | 0.78 M | 390 mV | 32 mV |  |
| O=C1c2ccccc2C(=O)c2c(OCCCS(=O)(=O)O)ccc(O)c21 [Compound M3SH] |  |  | 0.31 M | 0.23 M | 97 mV | 40 mV | E^0′ apparent standard redox potential [3]: −0.489 V vs NHE; E1/2 half-wave potential [3]: −0.489 V vs NHE; k^0′O × 10^−2 apparent heterogeneous rate constant [3]: 3.1 × 10^−2 cm/s; DO × 10^−6 diffusion coefficient [3]: 4.6 × 10^−6 cm^2/s |
| O=C1c2ccccc2C(=O)c2c(OCCCS(=O)(=O)O)ccc(O)c21 [Compound M3SNa] |  |  |  |  |  |  | solubility ([5]; aqueous H2SO4 1M solution, pH 0, aqueous buffer): 460 mM (≈ 167 mg/mL); solubility ([5]; unbuffered aqueous KCl 1M solution, saline or isotonic): 320 mM (≈ 116 mg/mL) |
| O=C1c2ccccc2C(=O)c2c(OCCCCS(=O)(=O)O)ccc(O)c21 [Compound M4SH] |  |  |  | 0.46 M | 97 mV | 39 mV | E^0′ apparent standard redox potential [3]: −0.494 V vs NHE; E1/2 half-wave potential [3]: −0.494 V vs NHE; k^0′O × 10^−2 apparent heterogeneous rate constant [3]: 3.1 × 10^−2 cm/s; DO × 10^−6 diffusion coefficient [3]: 5.8 × 10^−6 cm^2/s; compound degradation in negolyte after cycling [4]: no traces of compound M4SH degradation were visible |
| O=C1c2ccccc2C(=O)c2c(OCCCCS(=O)(=O)[O-])ccc(O)c21.[Na+] [Compound M4SNa] |  |  | 0.37 M | 0.88 M |  |  |  |
| O=C(O)CCCOc1ccc2c(c1)C(=O)c1ccc(OCCCC(=O)O)cc1C2=O [DBEAQ] | 1.58 × 10^−6 cm^2/s | 0.70 × 10^−2 cm/s |  |  |  |  |  |
| O=C1c2ccc(O)cc2C(=O)c2ccc(O)cc21 [DHAQ] | 4.8 × 10^−6 cm^2/s | 0.70 × 10^−2 cm/s |  |  |  |  |  |
| O=C1C=C(O)C(=O)C=C1O [DHBQ] | 3.66 × 10^−6 cm^2/s | 0.21 × 10^−2 cm/s |  |  |  |  |  |
| O=C1c2ccc(OCCCP(=O)(O)O)cc2C(=O)c2ccc(OCCCP(=O)(O)O)cc21 [DPPEAQ] | 1.37 × 10^−6 cm^2/s |  |  |  |  |  |  |
| Cc1cc2nc3c(=O)[nH]c(=O)nc-3n(C[C@H](O)[C@H](O)[C@H](O)COP(=O)([O-])O)c2cc1C.[Na+] [Flavine FMN-Na] | 1.3 × 10^−6 cm^2/s | 0.53 × 10^−2 cm/s |  |  |  |  |  |
| O=C1c2ccccc2C(=O)c2c(O)ccc(O)c21 [Quinizarin, quinizarin] |  |  |  |  |  |  | solubility ([5]; aqueous KOH 1M solution, pH 14, aqueous buffer): < 50 mM |
